#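 Results reflect a 48-hour exposure of cells in 96-well plates to compound at five concentrations. At the GI50, growth is halved.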 Calls of active or inactive are those of the source. Cut-off read from the data, not from the text of the source: active = GI50 up to about 1.1 µM and inactive = higher.
# What was measured:
# Test in all cases: DTP human tumour cell line panel, 48 h
# OVCAR-8 = system: OVCAR-8
# UACC-62 = system: UACC-62
# TK-10 = system: TK-10
# M19-MEL = system: M19-MEL
# EKVX = system: EKVX
# HOP-62 = system: HOP-62
# NCI-H226 = system: NCI-H226
# KM12 = system: KM12
# SNB-19 = system: SNB-19
# UACC-257 = system: UACC-257
# U-251 = system: U-251
# SNB-78 = system: SNB-78
# Malme-3M = system: Malme-3M
# OVCAR-4 = system: OVCAR-4
# DMS-114 = system: DMS-114
# SF-268 = system: SF-268
# IGROV-1 = system: IGROV-1
# RXF 393 = system: RXF 393
# SNB-75 = system: SNB-75
# MOLT-4 = system: MOLT-4
# OVCAR-5 = system: OVCAR-5
# OVCAR-3 = system: OVCAR-3
# K562 = system: K562
# CAKI-1 = system: CAKI-1
# SW-620 = system: SW-620
# SK-MEL-2 = system: SK-MEL-2
# SF-539 = system: SF-539
# DMS-273 = system: DMS-273
# A549 = system: A549
# SK-OV-3 = system: SK-OV-3
# HT-29 = system: HT-29
# SR = system: SR
# DLD-1 = system: DLD-1
# SK-MEL-5 = system: SK-MEL-5
# NCI-H460 = system: NCI-H460
# HCC 2998 = system: HCC 2998
# RPMI-8226 = system: RPMI-8226
# NCI-H522 = system: NCI-H522
# CCRF-CEM = system: CCRF-CEM
# KM-20L2 = system: KM-20L2
# LXFL 529 = system: LXFL 529
# 786-0 = system: 786-0
# SK-MEL-28 = system: SK-MEL-28
# COLO 205 = system: COLO 205
# HOP-18 = system: HOP-18
# SN12C = system: SN12C
# HL-60 = system: HL-60
# HCT-116 = system: HCT-116
# UO-31 = system: UO-31
# NCI-H23 = system: NCI-H23
# M14 = system: M14
# ACHN = system: ACHN
# HCT-15 = system: HCT-15
# SF-295 = system: SF-295
# A498 = system: A498
# LOX IMVI = system: LOX IMVI
# HOP-92 = system: HOP-92
smiles,measurement,setting,value
CC1(C)COC(c2c(-c3ccccc3)noc2C[S+]([O-])c2ccccc2)=N1 (centres undefined),GI50,OVCAR-8,37.3 µM (inactive)
same,GI50,UACC-62,20.7 µM (inactive)
same,GI50,TK-10,> 100 µM (inactive)
same,GI50,M19-MEL,45.1 µM (inactive)
same,GI50,EKVX,96.6 µM (inactive)
same,GI50,HOP-62,31.4 µM (inactive)
same,GI50,NCI-H226,30.3 µM (inactive)
same,GI50,KM12,36.1 µM (inactive)
same,GI50,SNB-19,> 100 µM (inactive)
same,GI50,UACC-257,52.1 µM (inactive)
same,GI50,U-251,32.5 µM (inactive)
same,GI50,SNB-78,7.48 µM (inactive)
same,GI50,Malme-3M,46.1 µM (inactive)
same,GI50,OVCAR-4,62.8 µM (inactive)
same,GI50,DMS-114,21.9 µM (inactive)
same,GI50,SF-268,19.9 µM (inactive)
same,GI50,IGROV-1,88.5 µM (inactive)
same,GI50,RXF 393,> 100 µM (inactive)
same,GI50,SNB-75,29.6 µM (inactive)
same,GI50,MOLT-4,22.5 µM (inactive)
same,GI50,OVCAR-5,> 100 µM (inactive)
same,GI50,OVCAR-3,> 100 µM (inactive)
same,GI50,K562,40.9 µM (inactive)
same,GI50,CAKI-1,61.5 µM (inactive)
same,GI50,SW-620,> 100 µM (inactive)
same,GI50,SK-MEL-2,24.5 µM (inactive)
same,GI50,SF-539,59.6 µM (inactive)
same,GI50,DMS-273,31.2 µM (inactive)
same,GI50,A549,46 µM (inactive)
same,GI50,SK-OV-3,72.3 µM (inactive)
same,GI50,HT-29,38.5 µM (inactive)
same,GI50,SR,29.1 µM (inactive)
same,GI50,DLD-1,> 100 µM (inactive)
same,GI50,SK-MEL-5,38.3 µM (inactive)
same,GI50,NCI-H460,28.3 µM (inactive)
same,GI50,HCC 2998,32.3 µM (inactive)
same,GI50,RPMI-8226,22.1 µM (inactive)
same,GI50,NCI-H522,36.1 µM (inactive)
same,GI50,CCRF-CEM,29.2 µM (inactive)
same,GI50,KM-20L2,46.3 µM (inactive)
same,GI50,LXFL 529,30.2 µM (inactive)
same,GI50,786-0,76.6 µM (inactive)
same,GI50,SK-MEL-28,33.1 µM (inactive)
same,GI50,COLO 205,40.4 µM (inactive)
same,GI50,HOP-18,24.9 µM (inactive)
same,GI50,SN12C,31.3 µM (inactive)
same,GI50,HL-60,23.9 µM (inactive)
same,GI50,HCT-116,28.2 µM (inactive)
same,GI50,UO-31,29.2 µM (inactive)
same,GI50,NCI-H23,32.3 µM (inactive)
same,GI50,M14,48.9 µM (inactive)
same,GI50,ACHN,40 µM (inactive)
same,GI50,HCT-15,27.4 µM
same,GI50,SF-295,34.6 µM (inactive)
same,GI50,A498,20.3 µM (inactive)
same,GI50,LOX IMVI,41 µM (inactive)
[N-]=[N+]=Nc1ccccc1-[n+]1noc([O-])c1Br,GI50,OVCAR-8,> 100 µM (inactive)
same,GI50,UACC-62,> 100 µM (inactive)
same,GI50,TK-10,> 100 µM (inactive)
same,GI50,M19-MEL,> 100 µM (inactive)
same,GI50,EKVX,> 100 µM (inactive)
same,GI50,HOP-62,> 100 µM (inactive)
same,GI50,NCI-H226,> 100 µM (inactive)
same,GI50,KM12,> 100 µM (inactive)
same,GI50,SNB-19,> 100 µM (inactive)
same,GI50,UACC-257,> 100 µM (inactive)
same,GI50,U-251,> 100 µM (inactive)
same,GI50,Malme-3M,> 100 µM (inactive)
same,GI50,OVCAR-4,> 100 µM (inactive)
same,GI50,DMS-114,> 100 µM (inactive)
same,GI50,SF-268,> 100 µM (inactive)
same,GI50,IGROV-1,> 100 µM (inactive)
same,GI50,RXF 393,> 100 µM (inactive)
same,GI50,SNB-75,> 100 µM (inactive)
same,GI50,MOLT-4,> 100 µM (inactive)
same,GI50,OVCAR-3,> 100 µM (inactive)
same,GI50,K562,> 100 µM (inactive)
same,GI50,CAKI-1,> 100 µM (inactive)
same,GI50,SW-620,> 100 µM (inactive)
same,GI50,SK-MEL-2,> 100 µM (inactive)
same,GI50,SF-539,> 100 µM (inactive)
same,GI50,A549,> 100 µM (inactive)
same,GI50,SK-OV-3,> 100 µM (inactive)
same,GI50,HT-29,> 100 µM (inactive)
same,GI50,SR,> 100 µM (inactive)
same,GI50,DLD-1,> 100 µM (inactive)
same,GI50,SK-MEL-5,> 100 µM (inactive)
same,GI50,NCI-H460,> 100 µM (inactive)
same,GI50,RPMI-8226,> 100 µM (inactive)
same,GI50,NCI-H522,> 100 µM (inactive)
same,GI50,CCRF-CEM,> 100 µM (inactive)
same,GI50,KM-20L2,> 100 µM (inactive)
same,GI50,LXFL 529,> 100 µM (inactive)
same,GI50,786-0,> 100 µM (inactive)
same,GI50,SK-MEL-28,> 100 µM (inactive)
same,GI50,COLO 205,> 100 µM (inactive)
same,GI50,HOP-18,> 100 µM (inactive)
same,GI50,SN12C,> 100 µM (inactive)
same,GI50,HL-60,> 100 µM (inactive)
same,GI50,HCT-116,> 100 µM (inactive)
same,GI50,UO-31,> 100 µM (inactive)
same,GI50,NCI-H23,> 100 µM (inactive)
same,GI50,M14,> 100 µM (inactive)
same,GI50,ACHN,> 100 µM (inactive)
same,GI50,HCT-15,> 100 µM
same,GI50,SF-295,> 100 µM (inactive)
same,GI50,HOP-92,> 100 µM (inactive)
CCNc1nnc(-c2nsc3ccccc23)s1,GI50,OVCAR-8,57.8 µM (inactive)
same,GI50,UACC-62,> 100 µM (inactive)
same,GI50,TK-10,> 100 µM (inactive)
same,GI50,M19-MEL,> 100 µM (inactive)
same,GI50,EKVX,51.9 µM (inactive)
same,GI50,HOP-62,33.7 µM (inactive)
same,GI50,KM12,59.7 µM (inactive)
same,GI50,SNB-19,16.3 µM (inactive)
same,GI50,UACC-257,> 100 µM (inactive)
same,GI50,U-251,31.3 µM (inactive)
same,GI50,SNB-78,62.1 µM (inactive)
same,GI50,OVCAR-4,86.5 µM (inactive)
same,GI50,SF-268,23.5 µM (inactive)
same,GI50,IGROV-1,> 100 µM (inactive)
same,GI50,RXF 393,32.8 µM (inactive)
same,GI50,SNB-75,8.83 µM (inactive)
same,GI50,MOLT-4,> 100 µM (inactive)
same,GI50,OVCAR-5,> 100 µM (inactive)
same,GI50,OVCAR-3,17.8 µM (inactive)
same,GI50,K562,> 100 µM (inactive)
same,GI50,SW-620,> 100 µM (inactive)
same,GI50,SK-MEL-2,> 100 µM (inactive)
same,GI50,SF-539,56.2 µM (inactive)
same,GI50,DMS-273,27.7 µM (inactive)
same,GI50,A549,> 100 µM (inactive)
same,GI50,HT-29,26.5 µM (inactive)
same,GI50,SR,> 100 µM (inactive)
same,GI50,SK-MEL-5,> 100 µM (inactive)
same,GI50,NCI-H460,33.2 µM (inactive)
same,GI50,HCC 2998,67.6 µM (inactive)
same,GI50,RPMI-8226,65.3 µM (inactive)
same,GI50,CCRF-CEM,> 100 µM (inactive)
same,GI50,KM-20L2,55.3 µM (inactive)
same,GI50,LXFL 529,94.2 µM (inactive)
same,GI50,SK-MEL-28,88.3 µM (inactive)
same,GI50,COLO 205,> 100 µM (inactive)
same,GI50,HOP-18,11.5 µM (inactive)
same,GI50,SN12C,> 100 µM (inactive)
same,GI50,HL-60,> 100 µM (inactive)
same,GI50,HCT-116,24.7 µM (inactive)
same,GI50,UO-31,24.8 µM (inactive)
same,GI50,NCI-H23,45.5 µM (inactive)
same,GI50,M14,> 100 µM (inactive)
same,GI50,ACHN,62.4 µM (inactive)
same,GI50,HCT-15,> 100 µM
same,GI50,HOP-92,> 100 µM (inactive)
same,GI50,LOX IMVI,> 100 µM (inactive)
